Reference: patent publication US5210193A, “Piperazine derivatives” (American Cyanamid Company, priority 1990, dated 1993)
Values after ≈ are worked out from the molar mass of the structure shown.

Key:
Klebsiella pneumoniae AD [1] = assay: in vivo antibacterial activity, survival of infected mice (Table II); design: species or system Charles River CD-1 mice; conditions: subcutaneous
Procedure: Charles River CD-1 mice were infected with either Klebsiella pneumoniae AD or Staphylococcus aureus Smith. A single subcutaneous dose of the test compound was administered 1/2 hour after infection. […] The results appear in Tables II and III, wherein the representative test compounds are identified by the number of their hereinafter described examples.

[2] = tested on: Morganella morganii VGH 84-11; assay: in vitro antibacterial MIC, agar plate dilution; type: cell-based; conditions: VGH8411, 18 hours, 35° C., read-out: MIC
Procedure: (§1) The in vitro antimicrobial spectrum of the compounds of ths invention were determined by the agar plate dilution method with Mueller-Hinton agar and an inoculum of each test organism of approximately 10^4 colony forming units delivered by the Steers replicating device. The minimal inhibitory concentration (MIC) in mcg/ml is defined as the lowest concentration of test compound that inhibited visible growth after 18 hours incubation at 35° C. Results are given in Table I, with the test compounds identified by the number of their hereinafter described examples.

[3] = tested on: Proteus rettgeri CMC 84-41; assay: in vitro antibacterial MIC, agar plate dilution; type: cell-based; conditions: Providencia rettgeri, CMC8441, 18 h, 35° C., read-out: MIC
Procedure: as §1

Klebsiella pneumoniae AD [4] = assay: in vitro antibacterial MIC, agar plate dilution; type: cell-based; conditions: Klebsiella pneumoniae, 18 h, 35° C., read-out: MIC
Procedure: as §1

[5] = tested on: Escherichia coli ATCC 25922; assay: in vitro antibacterial MIC, agar plate dilution; type: cell-based; conditions: Escherichia coli, ATCC25922, 18 h, 35° C., read-out: MIC
Procedure: as §1

[6] = tested on: Pseudomonas aeruginosa VGH 84-4; assay: in vitro antibacterial MIC, agar plate dilution; type: cell-based; conditions: Pseudomonas aeruginosa, VGH844, 18 h, 35° C., read-out: MIC
Procedure: as §1

[7] = tested on: Escherichia coli CMC 84-11; assay: in vitro antibacterial MIC, agar plate dilution; type: cell-based; conditions: Escherichia coli, CMC8411, 18 h, 35° C., read-out: MIC
Procedure: as §1

[8] = tested on: Staphylococcus aureus ATCC 25913; assay: in vitro antibacterial MIC, agar plate dilution; type: cell-based; conditions: ATCC25913, 18 hours, 35° C.
Procedure: as §1

[9] = tested on: Klebsiella pneumoniae MOR 84-4; assay: in vitro antibacterial MIC, agar plate dilution; type: cell-based; conditions: Klebsiella pneumoniae, MOR844, 18 h, 35° C., read-out: MIC
Procedure: as §1

[10] = tested on: Staphylococcus aureus Smith; assay: in vitro antibacterial MIC, agar plate dilution; type: cell-based; conditions: Staphylococcus aureus, 18 h, 35° C., read-out: MIC
Procedure: as §1

[11] = tested on: Enterobacter cloacae VGH 84-37; assay: in vitro antibacterial MIC, agar plate dilution; type: cell-based; conditions: Enterobacter cloacae, VGH8437, 18 h, 35° C., read-out: MIC
Procedure: as §1

[12] = tested on: Enterobacter aerogenes VGH 84-36; assay: in vitro antibacterial MIC, agar plate dilution; type: cell-based; conditions: Klebsiella aerogenes, VGH8436, 18 hours, 35° C., read-out: MIC
Procedure: as §1

[13] = tested on: Streptococcus faecalis ATTC 29212; assay: in vitro antibacterial MIC, agar plate dilution; type: cell-based; conditions: Enterococcus faecalis, ATTC29212, 18 hours, 35° C., read-out: MIC
Procedure: as §1

Row | Compound | Survival Ratio 7 Days After Infection (Klebsiella pneumoniae AD [1]; 0.25 mg/kg single dose) | Survival Ratio 7 Days After Infection (Klebsiella pneumoniae AD [1]; 1 mg/kg single dose) | Survival Ratio 7 Days After Infection (Klebsiella pneumoniae AD [1]; 4 mg/kg single dose) | Survival Ratio 7 Days After Infection (Klebsiella pneumoniae AD [1]; 16 mg/kg single dose) | Survival Ratio 7 Days After Infection (Klebsiella pneumoniae AD [1]; 64 mg/kg single dose) | MIC [2] [µg/mL] | MIC [3] [µg/mL] | MIC (Klebsiella pneumoniae AD [4]) [µg/mL] | MIC [5] [µg/mL] | MIC [6] [µg/mL] | MIC [7] [µg/mL] | MIC [8] [µg/mL] | MIC [9] [µg/mL] | MIC [10] [µg/mL] | MIC [11] [µg/mL] | MIC [12] [µg/mL] | Survival Ratio 7 Days After Infection (Klebsiella pneumoniae AD [1]; 0.5 mg/kg single dose) | Survival Ratio 7 Days After Infection (Klebsiella pneumoniae AD [1]; 2 mg/kg single dose) | Survival Ratio 7 Days After Infection (Klebsiella pneumoniae AD [1]; 8 mg/kg single dose) | MIC [13] [µg/mL]
1 | CN(C)CC1CNCCN1 (stereo not shown) [Example 1, N,N-Dimethyl-2-piperazinemethanamine] | 0/5 | 0/5 | 1/5 | 5/5 |  |  |  |  |  |  |  |  |  |  |  |  |  |  |  | 
2 | CCn1cc(C(=O)O)c(=O)c2cc(F)c(N3CCNC(CN4CCN(C)CC4)C3)cc21 (stereo not shown) [Example 4, 1-Ethyl-6-fluoro 1,4-dihydro-7-[3-[(4-methyl-1-piperazinyl)methyl]-1-piperazinyl]-4-oxo-3-quinolinecarboxylic acid] | 0/5 | 0/5 | 4/5 | 5/5 | 5/5 | 4 (≈ 9.27 µM) | 32 (≈ 74.2 µM) | 8 (≈ 18.5 µM) | 8 (≈ 18.5 µM) | 64 (≈ 148 µM) | 8 (≈ 18.5 µM) | 64 (≈ 148 µM) | 16 (≈ 37.1 µM) | 8 (≈ 18.5 µM) | 4 (≈ 9.27 µM) | 16 (≈ 37.1 µM) |  |  |  | 
3 | CCn1cc(C(=O)O)c(=O)c2cc(F)c(N3CCNC(CO)C3)cc21.Cl (stereo not shown) [Example 5, 1-Ethyl-6-fluoro-1,4-dihydro-7[3-(hydroxymethyl)-1-piperazinyl]-4-oxo-3-quinolinecarboxylic acid, hydrochloride] | 0/5 | 0/5 | 0/5 | 0/5 | 5/5 | 0.5 | 1 | 0.5 | 2 | 8 | 1 | 32 | 2 | 8 | 1 | 16 |  |  |  | 
4 | CCn1cc(C(=O)O)c(=O)c2cc(F)c(N3CCNC(c4sccc4C)C3)cc21 (stereo not shown) [Example 16, 1-Ethyl-6-fluoro-1,4-dihydro-7-[3-(3-methyl-2-thienyl)-1-piperazinyl]-4-oxo-3-quinolinecarboxylic acid] | 0/5 | 0/5 | 1/5 | 1/5 |  | 4 (≈ 9.63 µM) | 8 (≈ 19.3 µM) | 4 (≈ 9.63 µM) | 8 (≈ 19.3 µM) | > 256 | 4 (≈ 9.63 µM) | 1 (≈ 2.41 µM) | 8 (≈ 19.3 µM) | 0.5 (≈ 1.2 µM) | 8 (≈ 19.3 µM) | 8 (≈ 19.3 µM) |  |  |  | 
5 | Clc1ccc2oc(C3CNCCN3)cc2c1 (stereo not shown) [Example 17, 2-(5-Chloro-2-benzofuranyl)piperazine] | 0/5 | 0/5 | 1/5 | 5/5 |  |  |  |  |  |  |  |  |  |  |  |  | 0/5 | 0/5 | 5/5 | 
6 | CCn1cc(C(=O)O)c(=O)c2cc(F)c(N3CCNC(c4sc5ccc(Cl)cc5c4C)C3)cc21 (stereo not shown) [Example 20, 7-[3-(5-Chloro-3-methylbenzo[b]thien-2-yl)-1-piperazinyl]-1-ethyl-6-fluoro-1,4-dihydro-4-oxo-3-quinolinecarboxylic acid] |  |  |  |  |  | > 256 | > 256 | > 256 | > 256 | > 256 | > 256 | > 256 | > 256 | > 256 | > 256 | > 256 |  |  |  | > 256
7 | CCn1cc(C(=O)O)c(=O)c2cc(F)c(N3CCNC(CF)C3)cc21 (stereo not shown) [Example 24] |  |  |  |  |  | ≤ 0.12 | ≤ 0.12 | ≤ 0.12 | ≤ 0.12 | 2 (≈ 5.69 µM) | ≤ 0.12 | ≤ 0.12 | ≤ 0.12 | ≤ 0.12 | ≤ 0.12 | ≤ 0.12 |  |  |  | 2 (≈ 5.69 µM)
